Data: patent US10626118B2, “Pyrrolopyrimidine crystal for preparing JAK inhibitor” (Chia Tai Tianqing Pharmaceutical Group Co., Ltd., priority 2016, dated 2020)
Where two headings read alike, the source gives them in different places.

What was measured:
[1] = Stability test, open clean container at 60° C.; type: physicochemical
Description: The crystal A obtained in Method 1 of Example 2 and the crystal B obtained in Example 3 were placed in an open clean container at 60° C., and sampled for detection on days 5 and 10, respectively.

[2] = rats, 30 mg/kg PO; FDA pharmacology review; cited from earlier work
[3] = dogs, Male, FDA pharmacology review, cited from earlier work

Row | Content (%) ([1]; Day 0) | Total Impurity (%) ([1]; Day 0) | Content (%) ([1]; Day 5) | Total Impurity (%) ([1]; Day 5) | Content (%) ([1]; Day 10) | Total Impurity (%) ([1]; Day 10) | Structure (SMILES) | AUCINFobs [2] | AUCINF_obs ([3]; IV 5 mg/kg) | AUCINF_obs ([3]; PO 10 mg/kg)
1 | 99.72% | 0.28% | 99.71% | 0.29% | 99.73% | 0.27% | N#CC[C@H](C1CCCC1)n1cc(-c2ncnc3[nH]ccc23)c(N)n1 [Crystal A of compound represented by formula I] [(3R)-3-[3-amino-4-(7H-pyrrolo[2,3-d]pyrimidin-4-yl)-1H-pyrazol-1-yl]-3-cyclopentyl-propionitrile] |  |  | 
2 | 99.23% | 0.77% | 99.23% | 0.77% | 99.22% | 0.78% | N#CC[C@H](C1CCCC1)n1cc(-c2ncnc3[nH]ccc23)c(N)n1 [Crystal B of compound represented by formula I] [(3R)-3-[3-amino-4-(7H-pyrrolo[2,3-d]pyrimidin-4-yl)-1H-pyrazol-1-yl]-3-cyclopentyl-propionitrile] |  |  | 
3 |  |  |  |  |  |  | N#CC[C@H](C1CCCC1)n1cc(-c2ncnc3[nH]ccc23)cn1 [Ruxolitinib] | 1345 ng·h/mL | 13776 ng·h/mL | 15716 ng·h/mL
